Here are results for 9 molecules from ChEMBL document CHEMBL1142535, “Rational design and synthesis of 4-((1R,2R)-2-hydroxycyclohexyl)-2(trifluoromethyl)benzonitrile (PF-998425), a novel, nonsteroidal androgen receptor antagonist devoid of phototoxicity for dermatological indications” (J Med Chem, 2008).

Calls of active or inactive are those of the source. The calls are words filed in the database; no cut-off is given here.

One series has as its target T1, Progesterone receptor (Homo sapiens, UniProt P06401).
T1 sequence (P06401 whole entry): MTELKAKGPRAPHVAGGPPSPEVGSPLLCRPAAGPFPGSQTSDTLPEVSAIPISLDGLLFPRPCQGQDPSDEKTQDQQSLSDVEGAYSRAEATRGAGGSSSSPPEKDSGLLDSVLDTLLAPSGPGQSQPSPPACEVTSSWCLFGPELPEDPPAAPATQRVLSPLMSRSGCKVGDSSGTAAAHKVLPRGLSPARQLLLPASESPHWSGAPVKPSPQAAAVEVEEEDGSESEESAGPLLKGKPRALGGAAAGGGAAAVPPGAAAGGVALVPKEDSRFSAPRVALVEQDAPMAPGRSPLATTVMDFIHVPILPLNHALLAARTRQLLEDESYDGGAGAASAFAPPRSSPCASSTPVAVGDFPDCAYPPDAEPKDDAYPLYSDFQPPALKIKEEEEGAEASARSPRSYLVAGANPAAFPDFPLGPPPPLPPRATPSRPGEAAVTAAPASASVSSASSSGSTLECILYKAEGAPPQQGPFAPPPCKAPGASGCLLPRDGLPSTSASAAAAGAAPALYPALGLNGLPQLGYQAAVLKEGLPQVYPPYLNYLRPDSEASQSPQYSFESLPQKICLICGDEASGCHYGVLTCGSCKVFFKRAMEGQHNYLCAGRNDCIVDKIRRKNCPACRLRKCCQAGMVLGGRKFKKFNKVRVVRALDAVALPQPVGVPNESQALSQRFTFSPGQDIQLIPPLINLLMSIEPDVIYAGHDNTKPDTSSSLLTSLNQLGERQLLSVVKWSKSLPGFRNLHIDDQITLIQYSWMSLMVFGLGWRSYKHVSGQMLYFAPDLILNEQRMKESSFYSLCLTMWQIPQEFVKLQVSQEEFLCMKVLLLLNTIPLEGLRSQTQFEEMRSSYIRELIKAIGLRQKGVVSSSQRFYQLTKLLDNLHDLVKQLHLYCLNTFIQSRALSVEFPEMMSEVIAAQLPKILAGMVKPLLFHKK
Put plainly: Inhibition of progesterone receptor.

In series [1] the test system is Syrian golden hamster. Put plainly: Reduction of sebum ester production in golden syrian hamster ear topically dosed at 3% twice daily 5 days per week for two weeks. The format is functional, Mesocricetus auratus. On the set-up: scale not given: the % may be the effect or the level left.
The target in series [2] is T2, Androgen receptor (Homo sapiens, UniProt P10275).
T2 sequence (P10275 whole entry): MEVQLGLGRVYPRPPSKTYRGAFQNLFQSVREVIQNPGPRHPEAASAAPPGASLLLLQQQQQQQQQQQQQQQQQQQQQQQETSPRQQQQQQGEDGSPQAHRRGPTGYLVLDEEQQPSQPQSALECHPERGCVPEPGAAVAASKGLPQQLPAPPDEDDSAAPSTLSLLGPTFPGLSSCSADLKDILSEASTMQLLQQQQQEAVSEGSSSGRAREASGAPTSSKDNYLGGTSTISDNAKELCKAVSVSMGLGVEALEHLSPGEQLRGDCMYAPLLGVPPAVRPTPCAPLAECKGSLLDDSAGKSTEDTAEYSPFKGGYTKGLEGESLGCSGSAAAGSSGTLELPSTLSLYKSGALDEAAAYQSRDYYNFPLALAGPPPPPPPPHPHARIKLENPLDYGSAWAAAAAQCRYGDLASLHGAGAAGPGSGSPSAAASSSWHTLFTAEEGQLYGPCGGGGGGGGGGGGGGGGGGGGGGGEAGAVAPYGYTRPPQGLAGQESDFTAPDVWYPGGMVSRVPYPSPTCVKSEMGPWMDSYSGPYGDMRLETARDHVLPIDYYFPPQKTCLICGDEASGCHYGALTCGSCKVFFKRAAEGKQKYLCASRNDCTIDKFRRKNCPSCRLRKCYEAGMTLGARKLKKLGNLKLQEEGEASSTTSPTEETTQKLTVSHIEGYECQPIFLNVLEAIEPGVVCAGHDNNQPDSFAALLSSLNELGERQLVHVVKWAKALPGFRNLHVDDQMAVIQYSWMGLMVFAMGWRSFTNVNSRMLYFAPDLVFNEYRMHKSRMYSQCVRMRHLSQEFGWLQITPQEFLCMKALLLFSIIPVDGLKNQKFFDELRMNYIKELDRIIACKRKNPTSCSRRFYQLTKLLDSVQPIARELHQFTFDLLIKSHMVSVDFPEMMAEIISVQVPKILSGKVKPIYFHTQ
Kind of series: biochemical.
Description: Displacement of [3H]dihydrotestosterone from human androgen receptor expressed in Sf9 cells

The target in series [3] is T2, Androgen receptor.
Description: Antagonist activity against human androgen receptor expressed in human MDA-MB-453 cells assessed as inhibition of dihydrotestosterone-induced effect by luciferase receptor gene assay
Series [4] is described as follows: Metabolic stability assessed as half life in rat liver microsomes at 5 uM. The format is ADME, Microsome. On the technique in general: Liver microsomes are vesicles of endoplasmic reticulum, rich in cytochrome P450 enzymes.
A short description of series [5]: Metabolic stability assessed as intrinsic clearance per mg of protein in rat liver microsomes at 5 uM. Type of series: ADME, Microsome.
The nature of series [6]: Plasma clearance in Beagle dog at 0.8 mg/kg, iv after 24 hrs. On the set-up: dose 0.8 mg/kg, route intravenous. Type of series: ADME, organism-based, Canis lupus familiaris.
Series [7] is described as follows: Apparent volume of distribution in Beagle dog at 0.8 mg/kg, iv after 24 hrs. The note with it: in vivo, read-out: Vdss. The format is ADME, organism-based, Canis lupus familiaris. On the set-up: dose 0.8 mg/kg, route intravenous.
Series [8] can be described thus: Mean terminal half life in Beagle dog at 0.8 mg/kg, iv after 24 hrs. The format is ADME, organism-based, Canis lupus familiaris. On the set-up: dose 0.8 mg/kg, route intravenous. The settings on record: in vivo, read-out: beta t1/2 (converted).
For a further series, the system named is Mus musculus. Put plainly: Activation of hair growth in C3H/HeN mouse hair growth model topically dosed twice daily 5 days per week for 4 weeks. Type of series: functional, organism-based.
Series [9] relates to Syrian golden hamster. Kind of series: Reduction of sebum ester production in golden syrian hamster ear topically dosed twice daily 5 days per week for two weeks. The format is functional, Mesocricetus auratus.
In another series the test system is NIH3T3. Kind of series: Phototoxicity in mouse 3T3 cells by neutral red uptake phototoxicity. The format is cell-based.

Broadly, the IC50 is the point on the concentration scale where inhibition reaches its midpoint. `C[C@H](c1ccccc1)N(C)c1cc(C(F)(F)F)c(C#N)cn1`: the half-inhibitory concentration (IC50) at Progesterone receptor stood at 1660 nM.
As to `CC1(C)C(=O)N(c2ccc(C#N)c(C(F)(F)F)c2)C(=O)N1CCCCO` [RU-58841], the concentration for half-maximal inhibition (IC50) against Progesterone receptor worked out at 1000 nM. Moreover, in the series on Syrian golden hamster [1], the Activity is 92%.
The molecule `N#Cc1ccc([C@@H]2CCCC[C@@H]2O)cc1C(F)(F)F` returned a 50% inhibitory concentration (IC50) on Androgen receptor [2] of 1600 nM.
On Androgen receptor [2], `N#Cc1ccc([C@H]2CCCC[C@@H]2O)cc1C(F)(F)F` showed a 50% inhibitory concentration (IC50) greater than 3000 nM.
Take `COc1cc(-c2ccccc2O)ccc1C#N`: the results for the IC50 on Progesterone receptor, on Androgen receptor [3] and against Androgen receptor [2] were 3250 nM, 20.1 nM and 37 nM, respectively. Moreover, in the series with Syrian golden hamster [1], the Activity is listed as 87%.
One may read the microsomal CLint as the capacity of the preparation to metabolise the compound, expressed as a volume cleared per time. As a reminder, the clearance is a measure of how efficiently the substance is removed, as volume per time. On to `N#Cc1ccc([C@H]2CCCC[C@H]2O)cc1C(F)(F)F`, for which the half-inhibitory concentration (IC50) was greater than 10000 nM at Progesterone receptor, 43 nM on Androgen receptor [3] and 37 nM against Androgen receptor [2]. The Activity in the series with Syrian golden hamster [1] is 85%; in the series on NIH3T3 it was “Non-toxic”. Moreover, in series [4], the half-life at 5 µM came out at 4 min. Besides, the intrinsic metabolic clearance (microsomal CLint) at 5 µM in series [5] stood at 350 µL/min/mg. Also, the clearance in [6] stood at 40 mL/min/kg. Also, the Vd in [7] amounted to 6.5 L/kg. For the same molecule, the half-life in [8] is 2.6 h. Further, the result with Mus musculus was Active. This molecule came in with an ED50 in the series with Syrian golden hamster [9] of 0.4%.
Take `N#Cc1ccc(C2CCCCC2O)cc1C(F)(F)F` (racemic): the half-maximal inhibitory concentration (IC50) was greater than 10000 nM at Progesterone receptor, 90 nM against Androgen receptor [3] and 26 nM against Androgen receptor [2].
In the case of `N#Cc1ccc(-c2ccccc2O)cc1C(F)(F)F`, in the series on Syrian golden hamster [1], the Activity amounted to 86%.
Consider `N#Cc1ccc(O[C@@H]2CCCC[C@H]2C#N)cc1C(F)(F)F`, for which the concentration for half-maximal inhibition (IC50) against Progesterone receptor is greater than 10000 nM.
